A word on the EC50: it is the midpoint of the concentration-response curve.

Common to all, as to format: cell-based
Holding throughout (settings): HEK293 cells expressing recombinant human receptor

The target of one assay is human A3 receptor (Homo sapiens (Human), UniProt P0DMS8). Briefly: Intracellular cAMP functional assay (HTRF), A3. The procedure: (§1) Compound activity in human adenosine receptors A2A, A2B, A1, and A3 was measured in this functional cellular assay using an HTRF kit (Perkin Elmer). […] Dose response curves were performed in parallel with the reference compounds. The reference compounds used for A2A, A2B, A1, and A3, were respectively NECA, ZM241385, DPCPX, MRS. 12 μl of cells were mixed with 6 μl of the test compound at increasing concentrations and then incubated 10 min. Thereafter 6 μl of the reference agonist was added at a final concentration corresponding to the historical EC80. The plates were then incubated for 30 min at room temperature. After addition of the lysis buffer and 1 hour incubation, cAMP concentrations were estimated, according to the manufacturer specification, with the HTRF kit. The results showing functional activity of embodied compounds on adenosine receptors are shown below in Table 1.
(In general: In TR-FRET formats the signal depends on donor and acceptor labels being close together.)

In a further assay the target is human A2A receptor (Homo sapiens (Human), UniProt P29274). In words: Intracellular cAMP functional assay (HTRF), A2A. The procedure: as §1
For the next assay, the target named is human A1 receptor (Homo sapiens (Human), UniProt P30542). In words: Intracellular cAMP functional assay (HTRF), A1. The procedure: as §1
A further assay deals with human A2B receptor (Homo sapiens (Human), UniProt P29275). Briefly: Intracellular cAMP functional assay (HTRF), A2B. The procedure:
as §1

human A2A receptor, sequence (P29274 whole entry): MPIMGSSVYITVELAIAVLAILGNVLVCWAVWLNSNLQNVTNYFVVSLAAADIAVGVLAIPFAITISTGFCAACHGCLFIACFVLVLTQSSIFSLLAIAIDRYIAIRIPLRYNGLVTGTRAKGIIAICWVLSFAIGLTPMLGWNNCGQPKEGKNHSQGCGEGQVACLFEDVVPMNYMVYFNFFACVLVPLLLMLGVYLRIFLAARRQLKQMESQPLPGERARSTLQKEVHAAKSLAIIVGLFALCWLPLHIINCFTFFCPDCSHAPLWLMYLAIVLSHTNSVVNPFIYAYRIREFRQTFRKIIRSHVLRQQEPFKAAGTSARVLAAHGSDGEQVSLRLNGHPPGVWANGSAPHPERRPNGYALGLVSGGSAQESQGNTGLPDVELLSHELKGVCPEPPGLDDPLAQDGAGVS
human A3 receptor, sequence (P0DMS8 whole entry): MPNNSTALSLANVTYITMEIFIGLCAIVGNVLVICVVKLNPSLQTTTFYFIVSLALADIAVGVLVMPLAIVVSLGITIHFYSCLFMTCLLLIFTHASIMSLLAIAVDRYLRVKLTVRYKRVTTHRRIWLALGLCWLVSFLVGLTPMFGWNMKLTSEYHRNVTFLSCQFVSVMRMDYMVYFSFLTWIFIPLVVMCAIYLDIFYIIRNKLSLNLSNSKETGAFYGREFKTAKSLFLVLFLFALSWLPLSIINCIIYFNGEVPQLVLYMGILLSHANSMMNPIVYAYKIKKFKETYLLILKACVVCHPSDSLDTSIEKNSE
human A1 receptor, sequence (P30542 whole entry): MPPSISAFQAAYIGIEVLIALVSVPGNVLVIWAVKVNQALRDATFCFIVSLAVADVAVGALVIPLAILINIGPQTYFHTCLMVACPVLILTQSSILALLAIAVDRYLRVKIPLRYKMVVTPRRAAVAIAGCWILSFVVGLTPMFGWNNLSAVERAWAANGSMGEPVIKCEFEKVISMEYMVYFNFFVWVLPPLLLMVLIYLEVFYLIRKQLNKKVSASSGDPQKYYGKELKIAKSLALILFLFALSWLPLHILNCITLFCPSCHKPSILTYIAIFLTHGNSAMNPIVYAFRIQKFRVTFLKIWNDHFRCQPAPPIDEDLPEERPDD
human A2B receptor, sequence (P29275 whole entry): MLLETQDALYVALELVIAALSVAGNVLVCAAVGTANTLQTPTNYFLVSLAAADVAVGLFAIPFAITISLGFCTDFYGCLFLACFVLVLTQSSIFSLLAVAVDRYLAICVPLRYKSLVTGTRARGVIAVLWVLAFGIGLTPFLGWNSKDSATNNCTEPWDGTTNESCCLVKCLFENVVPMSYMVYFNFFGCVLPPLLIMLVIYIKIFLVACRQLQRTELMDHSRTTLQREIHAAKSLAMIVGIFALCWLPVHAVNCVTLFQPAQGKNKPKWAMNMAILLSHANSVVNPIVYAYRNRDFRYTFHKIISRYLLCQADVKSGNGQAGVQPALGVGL

Consider `Cc1cc(-c2sc(Nc3n[nH]c(C4CC4)n3)nc2-c2cccc(C#N)c2)c(C)cn1` [Compound 4, 3-{2-[(5-Cyclopropyl-1H-1,2,4-Triazol-3-Yl)Amino]-5-(2,5-Dimethylpyridin-4-Yl)-1,3-Thiazol-4-Yl}Benzonitrile], for which the EC50 on human A3 receptor was greater than 20000 nM; on human A2A receptor, 3890 nM; at human A1 receptor it was 16.4 nM; on human A2B receptor, 0.99 nM.
Take `N#Cc1cccc(-c2nc(Nc3n[nH]c(C4CC4)n3)sc2-c2ccncc2Cl)c1` [Compound 5, 3-[5-(3-Chloropyridin-4-Yl)-2-[(5-Cyclopropyl-1H-1,2,4-Triazol-3-Yl)Amino]-1,3-Thiazol-4-Yl]Benzonitrile]: the EC50 on human A3 receptor worked out at 2350 nM; at human A2A receptor, 478 nM; at human A1 receptor it was 2.3 nM; on human A2B receptor, 0.76 nM.
Consider `Cc1cncnc1-c1sc(Nc2n[nH]c(C3CC3)n2)nc1-c1cccc(C#N)c1` [Compound 27, 3-{2-[(5-Cyclopropyl-1H-1,2,4-Triazol-3-Yl)Amino]-5-(5-Methylpyrimidin-4-Yl)-1,3-Thiazol-4-Yl}Benzonitrile], for which the EC50 on human A3 receptor was greater than 30000 nM; on human A1 receptor, 20.7 nM; on human A2B receptor, 1.7 nM.
For `Cc1nc(Nc2nc(-c3cccc(C#N)c3)c(-n3ccnc3CO)s2)n[nH]1` [Compound 21, 3-{5-[2-(Hydroxymethyl)-1H-Imidazol-1-Yl]-2-[(5-Methyl-1H-1,2,4-Triazol-3-Yl)Amino]-1,3-Thiazol-4-Yl}Benzonitrile], the EC50 on human A3 receptor is greater than 30000 nM; on human A2A receptor, 6980 nM; at human A1 receptor, greater than 30000 nM; at human A2B receptor it was 1.64 nM.
Take `CCc1nccn1-c1sc(Nc2n[nH]c(C)n2)nc1-c1cccc(C#N)c1` [Compound 16, 3-[5-(2-Ethyl-1H-Imidazol-1-Yl)-2-[(5-Methyl-1H-1,2,4-Triazol-3-Yl)Amino]-1,3-Thiazol-4-Yl]Benzonitrile]: the EC50 at human A2A receptor turned out to be 61 nM; at human A2B receptor it was 2.2 nM.
As for `N#Cc1cccc(-c2nc(Nc3n[nH]c(C4CC4)n3)sc2-c2ccnnc2)c1` [Compound 25, 3-{2-[(5-Cyclopropyl-1H-1,2,4-Triazol-3-Yl)Amino]-5-(Pyridazin-4-Yl)-1,3-Thiazol-4-Yl}Benzonitrile], the EC50 on human A3 receptor was greater than 30000 nM; at human A1 receptor, 2.6 nM; at human A2B receptor it was 2.4 nM.
For `Cc1cc(-c2sc(Nc3n[nH]c(C4CC4)n3)nc2-c2cccc(C#N)c2)ccn1` [Compound 7, 3-{2-[(5-Cyclopropyl-1H-1,2,4-Triazol-3-Yl)Amino]-5-(2-Methylpyridin-4-Yl)-1,3-Thiazol-4-Yl}Benzonitrile], the EC50 at human A3 receptor worked out at 1740 nM; on human A2A receptor, 24.4 nM; on human A1 receptor it was 1.7 nM; on human A2B receptor, 1.4 nM.
For the compound `N#Cc1cccc(-c2nc(Nc3n[nH]c(C4CC4)n3)sc2-c2ccncc2)c1` [Compound 26, 3-{2-[(5-Cyclopropyl-1H-1,2,4-Triazol-3-Yl)Amino]-5-(Pyridin-4-Yl)-1,3-Thiazol-4-Yl}Benzonitrile], the EC50 at human A3 receptor was greater than 30000 nM; at human A1 receptor it was 0.8 nM; on human A2B receptor, 0.7 nM.
The matching figures for `Cc1cnncc1-c1sc(Nc2n[nH]c(C3CC3)n2)nc1-c1cccc(C#N)c1` [Compound 23, 3-{2-[(5-Cyclopropyl-1H-1,2,4-Triazol-3-Yl)Amino]-5-(5-Methylpyridazin-4-Yl)-1,3-Thiazol-4-Yl}Benzonitrile]: greater than 30000 nM, 115 nM and 6.7 nM.
As for `N#Cc1cccc(-c2nc(Nc3n[nH]c(C4CC4)n3)sc2-c2ccncc2F)c1` [Compound 2, 3-{2-[(5-cyclopropyl-1H-1,2,4-triazol-3-yl)amino]-5-(3-fluoropyridin-4-yl)-1,3-thiazol-4-yl}benzonitrile], the EC50 was greater than 20000 nM at human A3 receptor, 78.9 nM on human A2A receptor, 0.78 nM on human A1 receptor and 0.3 nM on human A2B receptor.
Consider `Cc1nccn1-c1sc(Nc2n[nH]c(C3CC3)n2)nc1-c1cc(C#N)ccc1F` [Compound 18, 3-{2-[(5-Cyclopropyl-1H-1,2,4-Triazol-3-Yl)Amino]-5-(2-Methyl-1H-Imidazol-1-Yl)-1,3-Thiazol-4-Yl}-4-Fluorobenzonitrile], for which the EC50 is greater than 10000 nM at human A2A receptor and 33.4 nM at human A2B receptor.
For the compound `Cc1cnccc1-c1sc(Nc2nc[nH]n2)nc1-c1cccc(C#N)c1` [Compound 22, 3-{5-(3-Methylpyridin-4-Yl)-2-[(1H-1,2,4-Triazol-3-Yl)Amino]-1,3-Thiazol-4-Yl}Benzonitrile], the values for the EC50 at human A3 receptor, at human A1 receptor and at human A2B receptor were greater than 30000 nM, 2.3 nM and 0.6 nM, respectively.
Regarding `Cc1cnccc1-c1sc(Nc2n[nH]c(C3CC3)n2)nc1-c1cccc(C#N)c1` [Compound 3, 3-{2-[(5-Cyclopropyl-1H-1,2,4-Triazol-3-Yl)Amino]-5-(3-Methylpyridin-4-Yl)-1,3-Thiazol-4-Yl}Benzonitrile], the EC50 on human A3 receptor is greater than 20000 nM; at human A2A receptor, 119 nM; at human A1 receptor it was 1.8 nM; at human A2B receptor, 0.38 nM.
As for `N#Cc1cccc(-c2nc(Nc3n[nH]c(C4CC4)n3)sc2-n2ccnc2CO)c1` [Compound 17, 3-{2-[(5-Cyclopropyl-1H-1,2,4-Triazol-3-Yl)Amino]-5-[2-(Hydroxymethyl)-1H-Imidazol-1-Yl]-1,3-Thiazol-4-Yl}Benzonitrile], the EC50 came to 100 nM on human A2A receptor and 2.4 nM on human A2B receptor.
For `Cc1cc(-c2sc(Nc3n[nH]c(C)n3)nc2-c2cccc(C#N)c2)c(C)cn1` [Compound 13, 3-[5-(2,5-Dimethylpyridin-4-Yl)-2-[(5-Methyl-1H-1,2,4-Triazol-3-Yl)Amino]-1,3-Thiazol-4-Yl]Benzonitrile], the EC50 was greater than 20000 nM on human A3 receptor, greater than 10000 nM at human A2A receptor, 65 nM at human A1 receptor and 2.8 nM at human A2B receptor.
On to `Cc1nccn1-c1sc(Nc2nc[nH]n2)nc1-c1cccc(C#N)c1` [Compound 9, 3-[5-(2-Methyl-1H-Imidazol-1-Yl)-2-[(1H-1,2,4-Triazol-3-Yl)Amino]-1,3-Thiazol-4-Yl]Benzonitrile], for which the concentration for a half-maximal effect (EC50) on human A3 receptor was 2350 nM; on human A2A receptor, greater than 10000 nM; on human A1 receptor it was 145 nM; on human A2B receptor, 3.3 nM.
On to `CCc1nc(Nc2nc(-c3cccc(C#N)c3)c(-n3ccnc3CO)s2)n[nH]1` [Compound 20, 3-{2-[(5-Ethyl-1H-1,2,4-Triazol-3-Yl)Amino]-5-[2-(Hydroxymethyl)-1H-Imidazol-1-Yl]-1,3-Thiazol-4-Yl}Benzonitrile], for which the EC50 on human A3 receptor was greater than 30000 nM; at human A2A receptor it was 3410 nM; on human A1 receptor, 360 nM; on human A2B receptor, 1.26 nM.
Taken in the same sequence, the figures for `Cc1nccn1-c1sc(Nc2n[nH]c(C3CC3)n2)nc1-c1cccc(C#N)c1` [Compound 8, 3-{2-[(5-Cyclopropyl-1H-1,2,4-Triazol-3-Yl)Amino]-5-(2-Methyl-1H-Imidazol-1-Yl)-1,3-Thiazol-4-Yl}Benzonitrile] were greater than 20000 nM, greater than 10000 nM, 107 nM and 2.9 nM.
In the case of `N#Cc1cccc(-c2nc(Nc3n[nH]c(C4CC4)n3)sc2-c2ccncn2)c1` [Compound 24, 3-{2-[(5-Cyclopropyl-1H-1,2,4-Triazol-3-Yl)Amino]-5-(Pyrimidin-4-Yl)-1,3-Thiazol-4-Yl}Benzonitrile], the EC50 at human A3 receptor was greater than 30000 nM; on human A1 receptor, 24.1 nM; on human A2B receptor, 2.3 nM.
As for `Cc1nccc(-c2sc(Nc3n[nH]c(C4CC4)n3)nc2-c2cccc(C#N)c2)c1C` [Compound 6, 3-{2-[(5-Cyclopropyl-1H-1,2,4-Triazol-3-Yl)Amino]-5-(2,3-Dimethylpyridin-4-Yl)-1,3-Thiazol-4-Yl}Benzonitrile], the concentration for a half-maximal effect (EC50) at human A3 receptor came out at 2060 nM; at human A2A receptor, 206 nM; at human A1 receptor, 1.2 nM; at human A2B receptor, 0.84 nM.
The matching figures for `N#Cc1cccc(-c2nc(Nc3nc[nH]n3)sc2-n2ccnc2CO)c1` [Compound 19, 3-{5-[2-(Hydroxymethyl)-1H-Imidazol-1-Yl]-2-[(1H-1,2,4-Triazol-3-Yl)Amino]-1,3-Thiazol-4-Yl}Benzonitrile]: greater than 3400 nM, 5760 nM, 885 nM and 2.01 nM.
The matching figures for `Cc1cc(-c2sc(Nc3n[nH]c(CO)n3)nc2-c2cccc(C#N)c2)c(C)cn1` [Compound 14, 3-[5-(2,5-Dimethylpyridin-4-Yl)-2-{[5-(Hydroxymethyl)-1H-1,2,4-Triazol-3-Yl]Amino}-1,3-Thiazol-4-Yl]Benzonitrile]: greater than 20000 nM, greater than 10000 nM, 36.1 nM and 3 nM.
With `Cn1cc(-c2sc(Nc3n[nH]c(C4CC4)n3)nc2-c2cccc(C#N)c2)ccc1=O` [Compound 29, 3-{2-[(5-Cyclopropyl-1H-1,2,4-Triazol-3-Yl)Amino]-5-(1-Methyl-6-Oxo-1,6-Dihydropyridin-3-Yl)-1,3-Thiazol-4-Yl}Benzonitrile], the 50% effective concentration (EC50) at human A3 receptor is greater than 30000 nM; on human A2A receptor, 1.1 nM; at human A1 receptor, 4.8 nM; on human A2B receptor, 0.4 nM.

(Values after patent publication US20250101013A1, “FUNCTIONALIZED AMINOTHIAZOLES” (LEADXPRO AG, priority 2022, published 2025).)
